From patent US11639343B2, “Compounds targeting and degrading BCR-ABL protein and its antitumor application” (ShanghaiTech University, priority 2019, dated 2023)
Read-outs that look alike come from different tables or passages of the source.

Columns and labels:
K562 (BCR-ABL+) cells = test: CCK-8 proliferation inhibition, K562 cells; type: cell-based, human; settings: read-out: Proliferative inhibitory activity (IC50, nM) K562 (BCR-ABL+);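 note: Ten-point threefold dilution series starting at 10 µM, absorbance at 450 nm after 2 h with CCK-8, DMSO as negative control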
U937 (BCR-ABL-) cells = test: CCK-8 proliferation inhibition, U937 cells; type: cell-based, human; settings: read-out: Proliferative inhibitory activity (IC50, nM) U937 (BCR-ABL-);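 note: Ten-point threefold dilution series, absorbance at 450 nm after 2 h with CCK-8 reagent, DMSO as negative control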
HEK293 (BCR-ABL-) cells = test: CCK-8 proliferation inhibition, HEK293 cells; settings: read-out: Proliferative inhibitory activity (IC50, nM) HEK293 (BCR-ABL-);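 note: Ten-point threefold dilution series starting at 10 µM, CCK-8 absorbance at 450 nm read after 2 h reagent incubation, DMSO-treated cells as negative control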
[1] = Homo sapiens, K562, 48 h, CCK-8, 48 hours of drug treatment
[2] = Homo sapiens, U-937, CCK-8, 48 hours of drug treatment, highest concentration 10 μM
[3] = CCK-8, 48 hours of drug treatment
[4] = CCK-8, 48 hours of drug treatment, highest concentration 10 μM

SMILES	IC50 (K562 (BCR-ABL+) cells; Homo sapiens, K562, 48 h) [nM]	IC50 (U937 (BCR-ABL-) cells; Homo sapiens, U-937, 48 h) [nM]	IC50 (K562 (BCR-ABL+) cells; [1]) [nM]	IC50 (HEK293 (BCR-ABL-) cells; Homo sapiens, HEK293, 48 h) [nM]	IC50 (U937 (BCR-ABL-) cells; [2]) [nM]	IC50 (K562 (BCR-ABL+) cells; [3]) [nM]	IC50 (HEK293 (BCR-ABL-) cells; [4]) [nM]	IC50 (U937 (BCR-ABL-) cells; [4]) [nM]
COc1cc(Nc2c(C#N)cnc3cc(OCCCN4CCN(C)CC4)c(OC)cc23)c(Cl)cc1Cl [Bosutinib, reference compound]	29.6	> 10000	–	–	–	–	–	–
Cc1nc(Nc2ncc(C(=O)Nc3c(C)cccc3Cl)s2)cc(N2CCN(C(=O)CCNc3cccc4c3C(=O)N(C3CCC(=O)NC3=O)C4=O)CC2)n1 (centres unmarked) [SIAIS151074, N-(2-chloro-6-methylphenyl)-2-((6-(4-(3-((2-(2,6-dioxopiperidin-3-yl)-1,3-dioxoisoindolin-4-yl)amino)propanoyl)piperazin-1-yl)-2-methylpyrimidin-4-yl)amino)thiazole-5-carboxamide]	–	–	6.8	> 10000	> 10000	–	–	–
Cc1nc(Nc2ncc(C(=O)Nc3c(C)cccc3Cl)s2)cc(N2CCN(C(=O)COCCOCC(=O)N[C@H](C(=O)N3C[C@H](O)C[C@H]3C(=O)NCc3ccc(-c4scnc4C)cc3)C(C)(C)C)CC2)n1 [SIAIS151076, N-(2-chloro-6-methylphenyl)-2-((6-(4-(2-(2-(2-(((S)-1-((2S,4R)-4-hydroxy-2-((4-(4-methylthiazol-5-yl)benzyl)carbamoyl)pyrrolidin-1-yl)-3,3-dimethyl-1-oxobutan-2-yl)amino)-2-oxoethoxy)ethoxy)acetyl)piperazin-1-yl)-2-methylpyrimidin-4-yl)amino)thiazole-5-carboxamide]	–	–	–	–	–	670	> 10000	> 10000
Cc1nc(Nc2ncc(C(=O)Nc3c(C)cccc3Cl)s2)cc(N2CCN(C(=O)CCOCCOCCOCCC(=O)N[C@H](C(=O)N3C[C@H](O)C[C@H]3C(=O)NCc3ccc(-c4scnc4C)cc3)C(C)(C)C)CC2)n1 [SIAIS151077, N-(2-chloro-6-methylphenyl)-2-((6-(4-((S)-15-((2S,4R)-4-hydroxy-2-((4-(4-methylthiazol-5-yl)benzyl)carbamoyl)pyrrolidine-1-carbonyl)-16,16-dimethyl-13-oxo-4,7,10-trioxa-14-azaheptadecanoyl)piperazin-1-yl)-2-methylpyrimidin-4-yl)amino)thiazole-5-carboxamide]	–	–	3430	> 10000	> 10000	–	–	–
Cc1nc(Nc2ncc(C(=O)Nc3c(C)cccc3Cl)s2)cc(N2CCN(C(=O)CCOCCOCCOCCOCCOCCC(=O)N[C@H](C(=O)N3C[C@H](O)C[C@H]3C(=O)NCc3ccc(-c4scnc4C)cc3)C(C)(C)C)CC2)n1 [SIAIS151079, N-(2-chloro-6-methylphenyl)-2-((6-(4-((S)-21-((2S,4R)-4-hydroxy-2-((4-(4-methylthiazol-5-yl)benzyl)carbamoyl)pyrrolidine-1-carbonyl)-22,22-dimethyl-19-oxo-4,7,10,13,16-pentaoxa-20-azatricosanoyl)piperazin-1-yl)-2-methylpyrimidin-4-yl)amino)thiazole-5-carboxamide]	–	–	1610	> 10000	> 10000	–	–	–
Cc1nc(Nc2ncc(C(=O)Nc3c(C)cccc3Cl)s2)cc(N2CCN(C(=O)COCCOCC(=O)N[C@H](C(=O)N3C[C@H](O)C[C@H]3C(=O)NCc3ccc(-c4scnc4C)cc3)C(C)(C)C)CC2)n1 [SIAIS151080, N-(2-chloro-6-methylphenyl)-2-((6-(4-(2-(2-(2-(((S)-1-((2S,4R)-4-hydroxy-2-((4-(4-methylthiazol-5-yl)benzyl)carbamoyl)pyrrolidin-1-yl)-3,3-dimethyl-1-oxobutan-2-yl)amino)-2-oxoethoxy)ethoxy)acetyl)piperazin-1-yl)-2-methylpyrimidin-4-yl)amino)thiazole-5-carboxamide]	–	–	–	> 10000	> 10000	2240	–	–
COc1cc(Nc2c(C#N)cnc3cc(OCCCN4CCN(C(=O)CC(=O)Nc5cccc6c5CN(C5CCC(=O)NC5=O)C6=O)CC4)c(OC)cc23)c(Cl)cc1Cl (centres unmarked) [SIAIS164104, 3-(4-(3-((3-cyano-4-((2,4-dichloro-5-methoxyphenyl)amino)-6-methoxyquinolin-7-yl)oxy)propyl)piperazin-1-yl)-N-(2-(2,6-dioxopiperidin-3-yl)-1-oxoisoindolin-4-yl)-3-oxopropanamide]	–	–	811	> 10000	> 10000	–	–	–
COc1cc(Nc2c(C#N)cnc3cc(OCCCN4CCN(C(=O)CCCC(=O)Nc5cccc6c5CN(C5CCC(=O)NC5=O)C6=O)CC4)c(OC)cc23)c(Cl)cc1Cl (centres unmarked) [SIAIS164106, 5-(4-(3-((3-cyano-4-((2,4-dichloro-5-methoxyphenyl)amino)-6-methoxyquinolin-7-yl)oxy)propyl)piperazin-1-yl)-N-(2-(2,6-dioxopiperidin-3-yl)-1-oxoisoindolin-4-yl)-5-oxopentanamide]	–	–	438	> 10000	> 10000	–	–	–
Cc1nc(Nc2ncc(C(=O)Nc3c(C)cccc3Cl)s2)cc(N2CCN(C(=O)CCCc3cn(CCCC(=O)N[C@H](C(=O)N4C[C@H](O)C[C@H]4C(=O)NCc4ccc(-c5scnc5C)cc4)C(C)(C)C)nn3)CC2)n1 [SIAIS164134, N-(2-chloro-6-methylphenyl)-2-((6-(4-(4-(1-(4-(((S)-1-((2S,4R)-4-hydroxy-2-((4-(4-methylthiazol-5-yl)benzyl)carbamoyl)pyrrolidin-1-yl)-3,3-dimethyl-1-oxobutan-2-yl)amino)-4-oxobutyl)-1H-1,2,3-triazol-4-yl)butanoyl)piperazin-1-yl)-2-methylpyrimidin-4-yl)amino)thiazole-5-carboxamide]	–	–	12	> 10000	> 10000	–	–	–
Cc1nc(Nc2ncc(C(=O)Nc3c(C)cccc3Cl)s2)cc(N2CCN(C(=O)CCCCCCCCCCCCC(=O)N[C@H](C(=O)N3C[C@H](O)C[C@H]3C(=O)NCc3ccc(-c4scnc4C)cc3)C(C)(C)C)CC2)n1 [SIAIS164193, N-(2-chloro-6-methylphenyl)-2-((6-(4-(14-(((S)-1-((2S,4R)-4-hydroxy-2-((4-(4-methylthiazol-5-yl)benzyl)carbamoyl)pyrrolidin-1-yl)-3,3-dimethyl-1-oxobutan-2-yl)amino)-14-oxotetradecanoyl)piperazin-1-yl)-2-methylpyrimidin-4-yl)amino)thiazole-5-carboxamide]	–	–	14.4	> 10000	> 10000	–	–	–
Cc1nc(Nc2ncc(C(=O)Nc3c(C)cccc3Cl)s2)cc(N2CCN(C(=O)CCCCCCCCCCCCCCC(=O)N[C@H](C(=O)N3C[C@H](O)C[C@H]3C(=O)NCc3ccc(-c4scnc4C)cc3)C(C)(C)C)CC2)n1 [SIAIS164194, N-(2-chloro-6-methylphenyl)-2-((6-(4-(16-(((S)-1-((2S,4R)-4-hydroxy-2-((4-(4-methylthiazol-5-yl)benzyl)carbamoyl)pyrrolidin-1-yl)-3,3-dimethyl-1-oxobutan-2-yl)amino)-16-oxohexadecanoyl)piperazin-1-yl)-2-methylpyrimidin-4-yl)amino)thiazole-5-carboxamide]	–	–	32.3	> 10000	> 10000	–	–	–
Cc1nc(Nc2ncc(C(=O)Nc3c(C)cccc3Cl)s2)cc(N2CCN(C(=O)CCCCCOCCOCCOCCCCCC(=O)N[C@H](C(=O)N3C[C@H](O)C[C@H]3C(=O)NCc3ccc(-c4scnc4C)cc3)C(C)(C)C)CC2)n1 [SIAIS180147, N-(2-chloro-6-methylphenyl)-2-((6-(4-((S)-3-((2S,4R)-4-hydroxy-2-((4-(4-methylthiazol-5-yl)benzyl)carbamoyl)pyrrolidine-1-carbonyl)-2,2-dimethyl-5-oxo-11,14,17-trioxa-4-azatricosan-23-oyl)piperazin-1-yl)-2-methylpyrimidin-4-yl)amino)thiazole-5-carboxamide]	–	–	14.9	> 10000	> 10000	–	–	–
Cc1nc(Nc2ncc(C(=O)Nc3c(C)cccc3Cl)s2)cc(N2CCN(C(=O)CCCCNC(=O)CCCCCCCCC(=O)N[C@H](C(=O)N3C[C@H](O)C[C@H]3C(=O)NCc3ccc(-c4scnc4C)cc3)C(C)(C)C)CC2)n1 [SIAIS184032, N1-(5-(4-(6-((5-((2-chloro-6-methylphenyl)carbamoyl)thiazol-2-yl)amino)-2-methylpyrimidin-4-yl)piperazin-1-yl)-5-oxopentyl)-N10-((S)-1-((2S,4R)-4-hydroxy-2-((4-(4-methylthiazol-5-yl)benzyl)carbamoyl)pyrrolidin-1-yl)-3,3-dimethyl-1-oxobutan-2-yl)decanediamide]	–	–	72	> 10000	> 10000	–	–	–
